Results: article PMC2151243 (British Journal of Cancer, 1998)
“And” between values parts separate entries of the source, which are not always exact repeats. Equal entries are not always repeated. “Also recorded” adds a separate entry of the source.

Columns and labels:
[1] = mouse, in vivo; cited from earlier work
[2] = system: Sheep antiserum to ZD1694 (S37B14); assay: Radioimmunoassay: cross-reaction of S37B14 antiserum; format: binding; conditions: for Cross-reaction of S37B14 antiserum (%): relative amount of ZD1694 and cross-reactant required to inhibit antibody binding of radiolabel by 50%
Text: (§1) British Joumal of Cancer (1998) 77(2), 221-226 ? […] Tomudex is now available for the treat- ment of advanced colorectal cancer in several countries. […] The limit of detection of this assay for plasma was 0.2 g1M when a solid-phase extraction was used. […] Separation of polyglutamated metabo- lites by HPLC was followed by quantitation in fractions using radiochemical analysis (Jackman et al, 1991c; Gibson et al, 1993) or by measuring inhibition of TS (Sikora et al, 1988). […] The dog was chosen as an additional model, because, unlike mice, plasma levels of thymidine are low and this species is much more sensitive to the effects of TS inhibitors than rodents. […] Acetonitrile was from Fisons, Dextran T70 from Pharmacia and all other chemicals from Sigma. Solutions were prepared with deionized water. […] Stock solutions (10 mM) were prepared in 0.15 M sodium bicar- bonate and stored at -20?C. For the mouse studies, the drug was formulated in 0.05 M sodium bicarbonate and the pH was adjusted to 8.5-9.0. Radioimmunoassay The assay diluent was 0.05 M phosphate buffer pH 7.4, containing 1 g 1-' gelatin and 6 g 1-' sodium chloride (PBSG). Initially, all dilutions and dispensing of standards and samples were made with a Dilutrend diluter, but a Multiprobe (Canberra Packard) auto- mated liquid-handling system was later programmed to perform these steps in the assay. […] Samples were assayed at three appropriate dilutions to ensure that the results of at least two dilutions fell on the linear portion of the stan- dard curve, and samples were reassayed at different dilutions if necessary. The antiserum was diluted in PBSG so that approxi- mately 40% of total radioactivity was bound (Bo) to antibody. This dilution was previously determined from an antiserum dilution curve and was 1:300 to 1:500 depending on the batch of radiolabel used. […] Diluted standards and samples (0.1 ml) were added in duplicate to numbered LP3 tubes (Luckham) or to deep-well blocks (Beckman) with 0.3 ml of assay diluent, 0.1 ml of diluted anti- serum and 0.1 ml of diluted label, mixed and left to stand in iced water for 1 h. Each assay included total counts and non-specific- binding tubes, containing only the radiolabel and buffer, and zero- standard-binding tubes (Bo), which contained only radiolabel and antiserum. The antibody-bound radiolabel was separated from unbound radiolabel by the addition of ice-cold dextran-coated charcoal [2.5% (w/v) activated charcoal (Sigma) coated with 0.25% (w/v) Dextran T-70 (Pharmacia)] to all but the total-counts tubes for 10 min. After centrifugation at 1000 g for 10 min at 4?C, 0.5 ml aliquots of supematant were taken from each assay tube for scintillation counting in 4.0 ml of Ultima gold scintillant (Canberra-Packard). […] The radioimmunoassays were carried out at the Institute of Cancer Research. […] The limit of detection for 6-8 x 10^6 cells is 0.05 µM intracellular concentration. […] Plasma was immediately separated from the; approximately blood by microcentrifugation and stored at -20?C until assayed. Liver and kidney samples were immediately frozen on solid carbon dioxide. Gut epithelium samples were obtained 1 day after drug treatment.

[3] = target: Thymidylate synthase (TS; EC 2.1.1.45), mouse enzyme; conditions: ref Jackman et al, 1991a, Gibson et al, 1993, read-out: Kj for mouse enzyme; cited from earlier work
[4] = design: method as in Aherme et al, 1996b; conditions: ref Aherme et al, 1996b; cited from earlier work
[5] = Mouse pharmacokinetic studies: plasma and tissue levels by radioimmunoassay; format: in vivo, female DBA2 mice; conditions: female, plasma, ip
Text: as §1

[6] = Pharmacokinetic studies in dogs: plasma and tissue levels by radioimmunoassay; format: in vivo, Alderley Park Beagle dogs
Text: British Joumal of Cancer (1998) 77(2), 221-226 ? […] Tomudex is now available for the treat- ment of advanced colorectal cancer in several countries. […] The limit of detection of this assay for plasma was 0.2 g1M when a solid-phase extraction was used. […] Separation of polyglutamated metabo- lites by HPLC was followed by quantitation in fractions using radiochemical analysis (Jackman et al, 1991c; Gibson et al, 1993) or by measuring inhibition of TS (Sikora et al, 1988). […] The dog was chosen as an additional model, because, unlike mice, plasma levels of thymidine are low and this species is much more sensitive to the effects of TS inhibitors than rodents. […] Acetonitrile was from Fisons, Dextran T70 from Pharmacia and all other chemicals from Sigma. Solutions were prepared with deionized water. […] Stock solutions (10 mM) were prepared in 0.15 M sodium bicar- bonate and stored at -20?C. For the mouse studies, the drug was formulated in 0.05 M sodium bicarbonate and the pH was adjusted to 8.5-9.0. Radioimmunoassay The assay diluent was 0.05 M phosphate buffer pH 7.4, containing 1 g 1-' gelatin and 6 g 1-' sodium chloride (PBSG). […] The antiserum was diluted in PBSG so that approxi- mately 40% of total radioactivity was bound (Bo) to antibody. This dilution was previously determined from an antiserum dilution curve and was 1:300 to 1:500 depending on the batch of radiolabel used. […]

L1210 cells = system: L1210 cells; design: method as in Jackman et al, 1995c; conditions: L1210, 0.1 µM, 24 h; ref Jackman et al, 1995c; cited from earlier work
L1210:RD1694 cells = system: L1210:RD1694 cells; design: method as in Jackman et al, 1995c; conditions: resistant line, after 24 h; ref Jackman et al, 1995c; cited from earlier work
[7] = design: method as in Jodrell et al, 1991; conditions: mice, 100 mg kg-1, HPLC; ref Jodrell et al, 1991; cited from earlier work
[8] = design: method as in Judson et al, 1996; conditions: man, ref Judson et al, 1996, cited from earlier work
[9] = design: method as in Jackman et al, 1995a; conditions: mice, ref Jackman et al, 1995a, cited from earlier work
[10] = system: L5178Y TK-/- mouse lymphoma; design: method as in Jackman et al, 1991b; conditions: single i.p. injection 10 mg kg-1; ref Jackman et al, 1991b; cited from earlier work
[11] = system: thymidine salvage competent models; design: method as in Jackman et al, 1991a and b; conditions: repeated treatment over 5 days; ref Jackman et al, 1991a and b; cited from earlier work

C#CCN(Cc1cc2c(=O)[nH]c(C)nc2cc1C)c1ccc(C(=O)N[C@@H](CCC(=O)N[C@H](CCC(=O)O)C(=O)O)C(=O)O)c(F)c1 [CB30900]
liver levels relative to plasma levels [1]: sixfold higher

Cc1nc2ccc(CN(C)c3ccc(C(=O)NC(CCC(=O)NC(CCC(=O)O)C(=O)O)C(=O)O)s3)cc2c(=O)[nH]1 (stereo not shown) [Diglutamate]
Cross-reaction of S37B14 antiserum (%) [2]: 90%

Cc1nc2ccc(CN(C)c3ccc(C(=O)NC(CCC(=O)NC(CCC(=O)NC(CCC(=O)NC(CCC(=O)NC(CCC(=O)NC(CCC(=O)O)C(=O)O)C(=O)O)C(=O)O)C(=O)O)C(=O)O)C(=O)O)s3)cc2c(=O)[nH]1 (stereo not shown) [Hexaglutamate]
Cross-reaction of S37B14 antiserum (%) [2]: 100%

Nc1nc2c(c(=O)[nH]1)N(C=O)C(CNc1ccc(C(=O)N[C@@H](CCC(=O)O)C(=O)O)cc1)CN2 (stereo partly shown) [Leucovorin]
Cross-reaction of S37B14 antiserum (%) [2]: < 0.01%

CN1c2c(nc(N)[nH]c2=O)NCC1CNc1ccc(C(=O)N[C@@H](CCC(=O)O)C(=O)O)cc1 (stereo partly shown) [Methyl-THFA]
Cross-reaction of S37B14 antiserum (%) [2]: < 0.01%

Cc1nc2ccc(CN(C)c3ccc(C(=O)N[C@@H](CCC(=O)N[C@@H](CCC(=O)N[C@@H](CCC(=O)N[C@@H](CCC(=O)N[C@@H](CCC(=O)O)C(=O)O)C(=O)O)C(=O)O)C(=O)O)C(=O)O)s3)cc2c(=O)[nH]1 [Pentaglutamate]
Cross-reaction of S37B14 antiserum (%) [2]: 110%

Cc1nc2ccc(CN(C)c3ccc(C(=O)NC(CCC(=O)NC(CCC(=O)NC(CCC(=O)NC(CCC(=O)O)C(=O)O)C(=O)O)C(=O)O)C(=O)O)s3)cc2c(=O)[nH]1 (stereo not shown) [Tetraglutamate]
Cross-reaction of S37B14 antiserum (%) [2]: 110%
Ki [3]: 1 nM

Cc1nc2ccc(CN(C)c3ccc(C(=O)NC(CCC(=O)NC(CCC(=O)NC(CCC(=O)O)C(=O)O)C(=O)O)C(=O)O)s3)cc2c(=O)[nH]1 (stereo not shown) [Triglutamate]
Cross-reaction of S37B14 antiserum (%) [2]: 92%

C#CCN(Cc1cc2c(=O)[nH]c(C)nc2cc1C)c1ccc(C(=O)N[C@@H](CCc2nnn[nH]2)C(=O)O)c(F)c1 [ZD933 1]
tissue to plasma ratios [4]: low tissue to plasma ratios

Cc1nc2ccc(CN(C)c3ccc(C(=O)N[C@@H](CCC(=O)O)C(=O)O)s3)cc2c(=O)[nH]1 [ZD1694, N-[5-[N-(3,4-dihydro-2-methyl-4-oxoquinazolin-6-ylmethyl)-N-methylamino]-2-thenoyl]-L-glutamic acid]
IC50 ([2]; ZD1694 standard curve, read-out: mean dose at 50% inhibition of binding): 1.47 nM
Cross-reaction of S37B14 antiserum (%) [2]: 100%
concentration at 1 day ([5]; DBA2, mouse, single i.p. 1 mg kg-1, day 1): 2.26 ng/mL
concentration at 1 day ([5]; DBA2, mouse, single i.p. 10 mg kg-1, day 1): 7.18 nM
concentration at 1 day ([5]; DBA2, mouse, single i.p. 100 mg kg-1, day 1): 30.7 nM
concentration at 4 day ([5]; DBA2, mouse, single i.p. 100 mg kg-1, day 4): 2.39 nM
half-life ([5]; mouse, DBA2 mice, 5 mg kg-1 i.p., non-compartmental model, read-out: plasma elimination phase (half-life) (converted)): ~2.7 h
concentration at 28 day ([6]; Alderley Park Beagle, dog, plasma, iv, 0.2 mg kg-1 single i.v. bolus, 28 days after administration): ~0.4 ng/mL and ~0.85 nM
gastrointestinal tissue drug concentrations ([6]; at 28 days, limit of detection 0.015 nmol g-1): near to the limit of detection; also recorded: at or near the limit of detection
intracellular concentration of ZD1694 by radioassay (L1210 cells): 3.8 gM
level of total drug ZD1694 estimated by radioassay (L1210:RD1694 cells): 0.44 gM
plasma half-life [7]: ~0.5 h
third phase half-life ([8]; plasma): 257 h
drug measured in the plasma ([8]; up to 4 weeks after drug administration): 1 to 10 ng/mL
radioactivity in the tissues present as polyglutamates ([9]; 24 h after tritiated ZD1694 5 mg kg-1): ~80%
polyglutamates in mouse plasma ([9]; tritiated ZD1694): No polyglutamates were found
anti-tumour effect [10]: curative
anti-tumour effect [11]: led to anti- tumour activity
